Assay in all cases: NCI anticancer screen, dose series, 48 h
Experiment [1] has as its system NCI-H226.
The test system of experiment [2] is LOX IMVI.
The test system of experiment [3] is NCI-H23.
For experiment [4], the system named is CCRF-CEM.
The test system of experiment [5] is KM12.
In experiment [6] the test system is COLO 205.
Experiment [7] has as its system 786-0.
Experiment [8] relates to MOLT-4.
The test system of experiment [9] is MDA-N.
Experiment [10] concerns IGROV-1.
Experiment [11] has as its system SK-OV-3.
Experiment [12] relates to SF-539.
Experiment [13] concerns OVCAR-5.
Experiment [14] concerns SNB-75.
The test system of experiment [15] is NCI-H460.
Experiment [16] relates to NCI/ADR-RES.
The test system of experiment [17] is M14.
Experiment [18] relates to HCC 2998.
The subject of experiment [19] is CAKI-1.

Here are results for eight compounds from ChEMBL document CHEMBL1201862, “PubChem BioAssay data set” (2004).

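Step 1: Grow cells in 96-well plates. Step 2: Expose to compound for 48 hours at 5 concentrations. Step 3: Interpolate endpoints linearly; if unreached, use highest concentration. At the GI50, growth is halved.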 The source made the active and inactive calls. Cut-off read from the data, not from the text of the source: active = GI50 up to about 1.1 µM and inactive = higher.

Turning to `CSc1nc(Cl)c2c(n1)Sc1nc3cc4c(cc3n1C2O)OCCO4` (configuration not stated), the GI50 is 0.276 µM (active) in experiment [1]; < 0.0162 µM (active) in experiment [2]; 0.39 µM (active) in experiment [3]; 0.0246 µM (active) in experiment [4]; 0.06 µM (active) in experiment [5]; 0.0509 µM (active) in experiment [6]. Further, the GI50 in [7] was 0.0336 µM (active); in [8], 0.0348 µM (active); in [9] it was 0.0308 µM (active); in experiment [10], 0.138 µM (active); in [11], 0.445 µM (active); in experiment [12], 0.0247 µM (active). For the same compound, the GI50 is 4.03 µM (inactive) in experiment [13]; 1.74 µM (inactive) in experiment [14]; 0.0897 µM (active) in experiment [15]; 0.149 µM (active) in experiment [16]; 0.0951 µM (active) in [17]; 0.318 µM (active) in experiment [18].
With `O=C1Oc2ccccc2C(=O)/C1=C/NC(=S)NCc1ccccc1`, the GI50 in [1] was > 100 µM (inactive); in [2], 69.3 µM (inactive); in experiment [3], 36.2 µM (inactive); in [5], 51.6 µM (inactive); in [6] it was > 100 µM (inactive); in [7], 64.1 µM (inactive). Besides, the GI50 in experiment [8] is 54.3 µM (inactive); in experiment [9], 50.5 µM (inactive); in [10] it was 38.8 µM (inactive); in experiment [11] it was > 100 µM (inactive); in experiment [12], 43.9 µM (inactive); in [19], 21 µM (inactive). Also, the GI50 in experiment [13] was > 100 µM (inactive); in [14], 16.9 µM (inactive); in [15], 70 µM (inactive); in experiment [16], 66.1 µM (inactive); in experiment [17], 75 µM (inactive); in experiment [18], 72.4 µM (inactive).
For the compound `O=c1c2ncn(CCCl)c2n(-c2ccccc2)c(=S)n1-c1ccccc1`, the GI50 in [1], in [2], in [3], in [4], in experiment [5] and in experiment [6] was > 100 µM (inactive) in each case. The GI50 in experiment [7], in experiment [8], in [9], in experiment [10], in [11] and in experiment [12] was > 100 µM (inactive) in each case. For the same compound, the GI50 in [19], in [13], in experiment [15], in experiment [16], in [17] and in experiment [18] was > 100 µM (inactive) each time.
For `Clc1ccc(Nc2nnc(CCCCCCCCc3nnc(Nc4ccc(Cl)cc4)o3)o2)cc1`, the GI50 in [1] was 46 µM (inactive); in experiment [3], 27.6 µM (inactive); in [5], 23.4 µM (inactive); in [6] it was 39.9 µM (inactive); in experiment [7] it was 24.5 µM (inactive); in [8], 10.9 µM (inactive). Further, the GI50 in experiment [9] is 33.3 µM (inactive); in [10], 8 µM (inactive); in [11], 35.7 µM (inactive); in [19], 38.3 µM (inactive); in experiment [13], 23.7 µM (inactive); in experiment [14], 82.2 µM (inactive). The GI50 in experiment [15] is 33.9 µM (inactive); in experiment [16] it was 36 µM (inactive); in experiment [17] it was 36 µM (inactive); in experiment [18], 36.4 µM (inactive).
On to `Fc1sc2c(c1F)C1CCC2C1` (configuration not stated), for which the GI50 in experiment [1] is > 100 µM (inactive); in experiment [2], 42.5 µM (inactive); in experiment [3] it was 58.3 µM (inactive); in [5], > 100 µM (inactive); in experiment [6] it was 43.2 µM (inactive); in [7], > 100 µM (inactive). Besides, the GI50 in [8] is 34.6 µM (inactive); in [9], 63.4 µM (inactive); in experiment [10] it was 51.2 µM (inactive); in experiment [11], > 100 µM (inactive); in [12] it was > 100 µM (inactive); in [19], > 100 µM (inactive). For the same compound, the GI50 in experiment [13] is > 100 µM (inactive); in experiment [14], > 100 µM (inactive); in [15], > 100 µM (inactive); in experiment [16], 47.1 µM (inactive); in [17], > 100 µM (inactive); in [18], > 100 µM (inactive).
Take `CCN1/C(=C/C#C/C(C)=C\c2sc3ccccc3[n+]2CC)Sc2ccccc21`: the GI50 in experiment [1] is 0.631 µM (active); in experiment [2], 2.33 µM (inactive); in experiment [5], 1.28 µM (inactive); in experiment [6], 1.27 µM (inactive); in [7], 3.13 µM (inactive); in [8] it was 24.4 µM (inactive). The GI50 in experiment [9] is 2.9 µM (inactive); in experiment [10], 1.75 µM (inactive); in [11], 10.6 µM (inactive); in experiment [12] it was 2.9 µM (inactive); in experiment [19] it was 2.39 µM (inactive); in experiment [13], 3.44 µM (inactive). Also, the GI50 in [14] is 1.53 µM (inactive); in [15] it was 2.53 µM (inactive); in experiment [16] it was 3.53 µM (inactive); in experiment [17], 1.93 µM (inactive); in experiment [18], 3.01 µM (inactive).
For `ClCc1c(-c2ccccc2)nn(-c2ccccc2)c1CCl`, the GI50 is 26.5 µM (inactive) in [1]; 15.6 µM (inactive) in experiment [3]; 13.2 µM (inactive) in experiment [5]; 5.94 µM (inactive) in experiment [6]; 9.59 µM (inactive) in experiment [7]; 10.7 µM (inactive) in experiment [9]. Moreover, the GI50 in [10] was 6.79 µM (inactive); in experiment [12], 16.1 µM (inactive); in experiment [19], 1.83 µM (inactive); in experiment [13], 19.4 µM (inactive); in experiment [14], 4.18 µM (inactive); in experiment [16], 29.4 µM (inactive). The GI50 is 15.4 µM (inactive) in experiment [17] and 13.9 µM (inactive) in experiment [18].
With `N/C(=N\O)N/N=C/c1cc(I)cc(I)c1O`, the GI50 in experiment [1] was 0.627 µM (active); in [2] it was 25.4 µM (inactive); in experiment [3], 28 µM (inactive); in [4], 7.89 µM (inactive); in [5], > 100 µM (inactive); in experiment [6] it was 27 µM (inactive). In addition, the GI50 in experiment [7] was 22.2 µM (inactive); in [8], > 100 µM (inactive); in experiment [9], 82.6 µM (inactive); in experiment [10] it was 30.8 µM (inactive); in experiment [11], 75.5 µM (inactive); in experiment [12], 29.7 µM (inactive). Also, the GI50 in experiment [19] is 57.1 µM (inactive); in experiment [13] it was 79.1 µM (inactive); in [15], 35.2 µM (inactive); in experiment [16], 2.8 µM (inactive); in experiment [17], 19 µM (inactive); in [18], 61.9 µM (inactive).
